Test results: US10201585B2, “Methods for treatment of atherosclerosis” (Stealth Peptides International, Inc., priority 2012, dated 2019)
Where “and” joins values, the source holds several entries; their conditions need not be identical. Identical values can stand only once.

Tested on: Apoprotein E deficient mice
Assay: Plasma lipid analysis using an autoanalyzer (TC, Trigs, PL, FC, CE by calculation)
Assay type: in vivo
Set-up: Plasma Trigs (triglycerides) / Trigs (plasma triglycerides): unit not given beside the values; Plasma CE (cholesterol ester, by calculation) / Plasma PL (phospholipids): unit not given here
From the text: Apoprotein E deficient mice (Jackson Laboratories, 600 Main Street, Bar Harbor, Me.) were used in this study. The mice were male, 7-8 weeks of age, and between 18-20 g in weight. An initial total cholesterol measurement was made on 30 mice, and the mice were grouped into two groups of 15 to match the total cholesterol measurements. Both groups were fed a “western diet” (40 kcal % butterfat, 0.15% [wt/wt] cholesterol, Harlan Teklad diet TD-88137). Starting at t=0, the control group of 15 mice received vehicle only (phosphate buffered saline at pH 7.4), while the test group of 15 mice received aromatic-cationic peptide reconstituted in phosphate buffered saline. Body weights of the mice were recorded weekly, and mortality checks were performed daily.
The aromatic-cationic peptide D-Arg-2′6′-Dmt-Lys-Phe-NH2 (sterile lyophilized powder, reconstituted in phosphate buffered saline) was tested. For the 12-week study, test mice received a single, daily dose of the peptide, subcutaneously at 1 mg/kg. Control mice received a single daily dose of vehicle.
Blood was collected every four weeks (orbital plexis) under isoflurane anesthesia (3%) and blood lipids were determined. Plasma lipid analysis was conducted for both groups at t=0, 4, 6, 8, and 12 weeks. Plasma lipid analysis using an autoanalyzer included total cholesterol (TC), triglycerides (Trigs), phospholipids (PL), free cholesterol (FC), and cholesterol ester (CE, by calculation). Gel electrophoresis was used to measure levels of high-density lipoprotein cholesterol (HDL-C), low-density lipoprotein cholesterol (LDL-C), and very low-density lipoprotein cholesterol (VLDL-C).

[1] = Week 0 (start of treatment, baseline), individual mouse of peptide group (sample 16-30)
[2] = Week 4, individual test mice (sample # 16-30), listed as aromatic-cationic peptide
[3] = Week 8, individual test mice (sample # 16-30), listed as aromatic-cationic peptide
[4] = Week 12, AVE of test mice 16-30
[5] = Week 12, individual test mice (sample # 16-30), listed as aromatic-cationic peptide
[6] = treated versus vehicle at 4, 8 and 12 week time points

For D-Arg-2′6′-Dmt-Lys-Phe-NH2, the “Plasma TC (total cholesterol), AVE” value (Week 0 (baseline), group mean of 15 test mice, vehicle group 411) was 422, the “Plasma CE (cholesterol ester, by calculation)” value [1] was 183 and 197 and 242 and 192 and 207 and 204 and 240 and 366 and 196 and 270 and 297 and 382 and 306 and 331 and 588 and the “Plasma FC (free cholesterol)” value [1] was 119 and 121 and 134 (2×) and 110 and 116 and 131 and 129 and 184 and 113 and 139 and 170 and 151 and 159 and 220. The “Plasma PL (phospholipids)” value [1] was 267 (3×) and 308 and 255 and 306 and 298 and 369 and 238 and 320 and 313 and 332 and 343 and 338 and 413, the “Plasma TC (total cholesterol)” value [1] was 302 (2×) and 318 and 376 and 323 and 335 and 369 and 550 and 309 and 409 and 431 and 552 and 457 and 490 and 808 and the “Plasma Trigs (triglycerides)” value [1] was 75 and 88 (3×) and 117 and 96 and 71 and 138 and 167 and 136 and 151 and 191 and 188 and 154 and 353. For the same substance, the “CE (plasma cholesterol ester)” value (Week 4, AVE of test mice 16-30) was 610, the “FC (plasma free cholesterol)” value (Week 4, AVE of test mice 16-30) was 387 and the “PL (plasma phospholipid)” value (Week 4, AVE of test mice 16-30) was 514. For the same substance, the “TC (plasma total cholesterol)” value (Week 4, AVE of test mice 16-30) was 997, the “Trigs (plasma triglycerides)” value (Week 4, AVE of test mice 16-30) was 58 and the “CE (plasma cholesterol ester)” value [2] was 491 and 580 and 622 and 731 and 626 and 417 and 574 and 660 and 515 and 536 and 630 and 761 and 581 and 732 and 701. The “FC (plasma free cholesterol)” value [2] was 308 and 344 and 354 (2×) and 408 and 412 and 256 and 366 and 386 and 320 and 286 and 396 and 462 and 516 and 636, the “PL (plasma phospholipid)” value [2] was 422 and 482 and 452 and 560 and 526 and 320 and 506 and 556 and 446 and 416 and 516 and 580 and 510 and 666 and 750 and the “TC (plasma total cholesterol)” value [2] was 799 and 924 and 976 and 1139 and 1038 and 673 and 940 and 1046 and 835 and 822 and 1026 and 1223 and 935 and 1248 and 1337. For the same substance, the “Trigs (plasma triglycerides)” value [2] was 18 (2×) and 39 and 28 and 85 and 59 (2×) and 46 and 108 and 33 and 44 (2×) and 67 and 80 and 144, the “CE (plasma cholesterol ester)” value (Week 8, AVE of test mice 16-30) was 932 and the “FC (plasma free cholesterol)” value (Week 8, AVE of test mice 16-30) was 350. For the same substance, the “PL (plasma phospholipid)” value (Week 8, AVE of test mice 16-30) was 493, the “TC (plasma total cholesterol)” value (Week 8, AVE of test mice 16-30) was 1282 and the “Trigs (plasma triglycerides)” value (Week 8, AVE of test mice 16-30) was 57. For the same substance, the “CE (plasma cholesterol ester)” value [3] was 940 and 710 and 1119 and 865 and 1153 and 653 and 714 and 1085 and 715 and 670 and 1073 and 1048 and 839 and 1130 and 1267, the “FC (plasma free cholesterol)” value [3] was 322 and 294 (2×) and 386 and 318 and 392 and 290 and 388 and 308 (2×) and 286 and 362 and 366 and 404 and 530 and the “PL (plasma phospholipid)” value [3] was 416 and 456 and 474 and 448 and 516 (2×) and 424 and 480 and 488 and 436 and 440 and 556 and 470 and 540 and 728. The “TC (plasma total cholesterol)” value [3] was 1262 and 1004 and 1505 and 1183 and 1545 and 943 and 1008 and 1473 and 1023 and 956 and 1435 and 1414 and 1147 and 1534 and 1797, the “Trigs (plasma triglycerides)” value [3] was 34 (3×) and 31 (2×) and 51 (2×) and 48 and 53 and 43 and 75 and 63 and 39 and 67 and 195 and the “CE (plasma cholesterol ester)” value [4] was 681. For the same substance, the “FC (plasma free cholesterol)” value [4] was 322, the “PL (plasma phospholipid)” value [4] was 434 and the “TC (plasma total cholesterol)” value [4] was 1003. For the same substance, the “Trigs (plasma triglycerides)” value [4] was 55, the “CE (plasma cholesterol ester)” value [5] was 607 and 335 and 597 and 640 and 1002 and 477 and 445 and 476 and 675 and 687 and 960 and 869 and 339 and 904 and 1201 and the “FC (plasma free cholesterol)” value [5] was 291 and 205 and 287 and 296 and 418 and 242 and 229 and 269 and 315 and 312 and 419 and 386 and 219 and 413 and 535. The “PL (plasma phospholipid)” value [5] was 366 and 318 and 320 and 432 and 491 and 321 and 363 and 394 and 374 and 423 and 536 and 521 and 340 and 575 and 741, the “TC (plasma total cholesterol)” value [5] was 898 and 540 and 884 and 937 and 1420 and 719 and 674 and 745 and 990 and 999 and 1379 and 1255 and 558 and 1317 and 1736 and the “Trigs (plasma triglycerides)” value [5] was 27 and 49 and 10 and 37 (2×) and 18 and 39 (2×) and 13 and 25 and 74 and 89 and 97 and 112 and 158. For the same substance, the “Plasma cholesterol ester, in words” value [6] was “reduces”, the “Plasma free cholesterol, in words” value [6] was “reduces” and the “Plasma phospholipid levels, in words” value [6] was “reduces”. For the same substance, the “Plasma total cholesterol, in words” value [6] was “reduces” and the “Plasma triglycerides, in words” value [6] was “reduces”.
